# Measured values published in patent US20060069132A1, “Azolecarboxamide herbicides” (priority 2004, published 2006).
# Assays:
# [1] = system: Surinam grass; experiment: Test B pre-/postemergence herbicide test; format: in vivo, Urochloa decumbens
# In short: (§1)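 Seeds were planted and treated preemergence with compounds formulated in a non-phytotoxic solvent mixture containing surfactant, while plants at the 1- to 4-leaf stage (2 to 18 cm) received postemergence sprays. Flooded paddy plants were grown to the 2-leaf stage. After 13 to 15 days in a greenhouse, injury was visually rated 0–100 against untreated controls.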
# [2] = system: pigweed; experiment: Test B pre-/postemergence herbicide test; format: in vivo, Amaranthus retroflexus
# In short: as §1
# [3] = system: wild oat; experiment: Test B postemergence herbicide test; format: in vivo, Avena fatua; conditions: scale 0 (no effect) to 100 (complete control)
# In short: (§2)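 Each value is a visual 0–100 response rating taken against controls 13 to 15 days after treatment in the greenhouse. Plants received formulated chemical postemergence at the 1- to 4-leaf stage or, in flooded paddy, at the 2-leaf stage.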
# [4] = system: small flower umbrella sedge; experiment: Test B flooded paddy test; format: in vivo, Cyperus difformis; conditions: 1000 g ai/ha, visual rating, scale 0 to 100 (0 no effect, 100 complete control), 13 to 15 days
# In short: (§3)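 Postemergence plants were sprayed with formulated test chemicals at 2 to 18 cm height (1- to 4-leaf stage); paddy species were grown to the 2-leaf stage. After 13 to 15 days in a greenhouse, injury was rated visually against untreated controls on a 0–100 scale (0 = no effect, 100 = complete control).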
# [5] = system: morningglory; experiment: Test B pre-/postemergence herbicide test; format: in vivo, Ipomoea coccinea
# In short: as §1
# [6] = system: rice; experiment: Test B flooded paddy test; format: in vivo, Oryza sativa; conditions: 1000 g ai/ha, visual rating, scale 0 to 100 (0 no effect, 100 complete control), 13 to 15 days
# In short: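 Visual ratings, 0 (no effect) to 100 (complete control), made versus controls after 13–15 d greenhouse. Paddy plants treated at 2-leaf stage; postemergence plants at 1- to 4-leaf stage, 2–18 cm tall.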
# [7] = system: barnyardgrass; experiment: Test B flooded paddy test; format: in vivo, Echinochloa crus-galli; conditions: 1000 g ai/ha, visual rating, scale 0 to 100 (0 no effect, 100 complete control), 13 to 15 days
# In short: as §3
# [8] = system: giant foxtail; experiment: Test A pre-/postemergence herbicide test; format: in vivo, Setaria faberi
# In short: (§4)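 Seeds sown in sandy loam received a preemergence directed soil spray of compound in non-phytotoxic solvent with surfactant; postemergence plants (2–10 cm, one- to two-leaf stage) were sprayed to runoff at the same time. After ~10 days in greenhouse, injury was rated visually versus untreated controls (0 = no effect, 100 = complete control).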
# [9] = system: wheat; experiment: Test B postemergence herbicide test; format: in vivo, Triticum aestivum; parameters: key to Wheat plant response rating: 0 = no effect, 100 = complete control; conditions: scale 0 (no effect) to 100 (complete control)
# In short: as §2
# [10] = system: velvetleaf; experiment: Test A pre-/postemergence herbicide test; format: in vivo, Abutilon theophrasti
# In short: as §4
# [11] = system: velvetleaf; experiment: Test B pre-/postemergence herbicide test; format: in vivo, Abutilon theophrasti
# In short: as §1
# [12] = system: giant foxtail; experiment: Test B pre-/postemergence herbicide test; format: in vivo, Setaria faberi
# In short: as §1
# [13] = system: large crabgrass; experiment: Test A pre-/postemergence herbicide test; format: in vivo, Digitaria sanguinalis
# In short: as §4
# [14] = system: redroot pigweed; experiment: Test A pre-/postemergence herbicide test; format: in vivo, Amaranthus retroflexus
# In short: as §4
# [15] = system: lambsquarters; experiment: Test B pre-/postemergence herbicide test; format: in vivo, Chenopodium album
# In short: as §1
# [16] = system: corn; experiment: Test B pre-/postemergence herbicide test; format: in vivo, Zea mays
# In short: as §1
# [17] = system: barnyardgrass; experiment: Test A pre-/postemergence herbicide test; format: in vivo, Echinochloa crus-galli
# In short: as §4
# [18] = system: ducksalad; experiment: Test B flooded paddy test; format: in vivo, Heteranthera limosa; conditions: 1000 g ai/ha, visual rating, scale 0 to 100 (0 no effect, 100 complete control), 13 to 15 days
# In short: as §3
# [19] = system: morningglory; experiment: Test A pre-/postemergence herbicide test; format: in vivo, Ipomoea spp.
# In short: as §4
# [20] = system: barnyardgrass; experiment: Test B pre-/postemergence herbicide test; format: in vivo, Echinochloa crus-galli
# In short: as §1
# [21] = system: cocklebur; experiment: Test B pre-/postemergence herbicide test; format: in vivo, Xanthium strumarium
# In short: as §1
# [22] = system: large crabgrass; experiment: Test B pre-/postemergence herbicide test; format: in vivo, Digitaria sanguinalis
# In short: as §1
# [23] = system: rice; experiment: Test B pre-/postemergence herbicide test; format: in vivo, Oryza sativa; conditions: preemergence
# In short: as §1
# [24] = system: blackgrass; experiment: Test B postemergence herbicide test; format: in vivo, Alopecurus myosuroides; conditions: scale 0 (no effect) to 100 (complete control)
# In short: as §3
# [25] = 500 g ai/ha, visual rating 0-100, 0 no effect, 100 complete control, preemergence
# [26] = Postemergence, 500 g ai/ha, visual rating after 13 to 15 days, scale 0 (no effect) to 100 (complete control)
# [27] = postemergence, 125 g ai/ha, visual rating, scale 0 (no effect) to 100 (complete control)
# [28] = preemergence, 125 g ai/ha, 0 to 100 scale, 0 is no effect, 100 is complete control
# [29] = Postemergence, 500 g ai/ha, visual rating after 13 to 15 days
# [30] = postemergence, 125 g ai/ha, visual rating
# [31] = Postemergence, 500 g ai/ha, 0 to 100 scale, 0 no effect, 100 complete control
# [32] = Postemergence, 2000 g ai/ha, 0 to 100 scale, 0 no effect, 100 complete control
# [33] = Preemergence, 500 g ai/ha, visual rating, 0 to 100 scale (0 no effect, 100 complete control)
# [34] = Preemergence, 2000 g ai/ha, 0 to 100 scale, 0 no effect, 100 complete control
compound,measurement,setting,value
C=CCOC(=O)c1cccc(NC(=O)c2cc(C(C)(C)C)nn2CC)c1C [Compound 94],"Plant response rating, Surinam Grass",[1]; [25],0
same,"Plant response rating, Surinam Grass",[1]; [26],10
same,Surinam Grass plant response rating,[1]; [27],10
same,"Plant response rating, Surinam Grass",[1]; [28],0
same,"Plant response rating, Pigweed",[2]; [25],20
same,"Plant response rating, Pigweed",[2]; [26],30
same,Pigweed plant response rating,[2]; [27],10
same,"Plant response rating, Pigweed",[2]; [28],0
same,"Plant response rating, Oat, Wild",[3]; [29],10
same,"Oat, Wild plant response rating",[3]; [30],10
same,"Sedge, Umbrella plant response rating",[4],50
same,"Plant response rating, Morningglory",[5]; [25],0
same,"Plant response rating, Morningglory",[5]; [26],10
same,Morningglory plant response rating,[5]; [27],10
same,"Plant response rating, Morningglory",[5]; [28],0
same,Rice plant response rating,[6],10
same,Barnyardgrass plant response rating,[7],20
same,"Foxtail, Giant plant response rating",[8]; [31],10
same,"Plant response rating, Foxtail, Giant",[8]; [32],15
same,"Foxtail, Giant plant response rating",[8]; [33],45
same,"Foxtail, Giant plant response rating",[8]; [34],65
same,"Plant response rating, Wheat",[9]; [29],10
same,Wheat plant response rating,[9]; [30],0
same,Velvetleaf plant response rating,[10]; [31],20
same,"Plant response rating, Velvetleaf",[10]; [32],25
same,Velvetleaf plant response rating,[10]; [33],5
same,Velvetleaf plant response rating,"[10]; Preemergence, 2000 g ai/ha, visual rating, 0 to 100 scale (0 no effect, 100 complete control)",25
same,"Plant response rating, Velvetleaf",[11]; [25],0
same,"Plant response rating, Velvetleaf",[11]; [26],20
same,Velvetleaf plant response rating,[11]; [27],10
same,"Plant response rating, Velvetleaf",[11]; [28],0
same,"Plant response rating, Foxtail, Giant",[12]; [25],30
same,"Plant response rating, Foxtail, Giant",[12]; [26],10
same,"Foxtail, Giant plant response rating",[12]; [27],10
same,"Plant response rating, Foxtail, Giant",[12]; [28],10
same,"Crabgrass, Large plant response rating",[13]; [31],10
same,"Plant response rating, Crabgrass, Large",[13]; [32],30
same,"Crabgrass, Large plant response rating",[13]; [33],35
same,"Crabgrass, Large plant response rating",[13]; [34],60
same,Pigweed plant response rating,[14]; [31],25
same,"Plant response rating, Pigweed",[14]; [32],30
same,Pigweed plant response rating,[14]; [33],35
same,Pigweed plant response rating,[14]; [34],85
same,"Plant response rating, Lambsquarters",[15]; [25],0
same,"Plant response rating, Lambsquarters",[15]; [26],80
same,Lambsquarters plant response rating,[15]; [27],50
same,"Plant response rating, Lambsquarters",[15]; [28],0
same,"Plant response rating, Corn",[16]; [25],0
same,"Plant response rating, Corn",[16]; [26],20
same,Corn plant response rating,[16]; [27],20
same,"Plant response rating, Corn",[16]; [28],0
same,Barnyardgrass plant response rating,[17]; [31],20
same,"Plant response rating, Barnyardgrass",[17]; [32],35
same,Barnyardgrass plant response rating,[17]; [33],20
same,Barnyardgrass plant response rating,[17]; [34],65
same,Ducksalad plant response rating,[18],30
same,Morningglory plant response rating,[19]; [31],20
same,"Plant response rating, Morningglory",[19]; [32],20
same,Morningglory plant response rating,[19]; [33],10
same,Morningglory plant response rating,[19]; [34],10
same,"Plant response rating, Barnyardgrass",[20]; [25],20
same,"Plant response rating, Barnyardgrass",[20]; [26],10
same,Barnyardgrass plant response rating,[20]; [27],10
same,"Plant response rating, Barnyardgrass",[20]; [28],10
same,"Plant response rating, Cocklebur",[21]; [25],0
same,"Plant response rating, Cocklebur",[21]; [26],50
same,Cocklebur plant response rating,[21]; [27],20
same,"Plant response rating, Cocklebur",[21]; [28],0
same,"Plant response rating, Crabgrass, Large",[22]; [25],20
same,"Plant response rating, Crabgrass, Large",[22]; [26],10
same,"Crabgrass, Large plant response rating",[22]; [27],10
same,"Plant response rating, Crabgrass, Large",[22]; [28],10
same,"Plant response rating, Rice","[23]; 500 g ai/ha, visual rating 0-100, 0 no effect, 100 complete control",0
same,"Plant response rating, Rice","[23]; 125 g ai/ha, 0 to 100 scale, 0 is no effect, 100 is complete control",0
same,"Plant response rating, Blackgrass",[24]; [29],10
same,Blackgrass plant response rating,[24]; [30],0
